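These data come from cells grown in 96-well plates and exposed to compound for 48 hours at five concentrations. GI50 is the concentration that inhibits growth by half.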 Calls of active or inactive are those of the source. Rule as the data show it: active = GI50 up to about 1.1 µM and inactive = higher.
Experiments:
Assay in all cases: growth of human tumour cells (NCI), 48 h
CCRF-CEM = system: CCRF-CEM
EKVX = system: EKVX
HCC 2998 = system: HCC 2998
HCT-116 = system: HCT-116
HCT-15 = system: HCT-15
K562 = system: K562
LOX IMVI = system: LOX IMVI
NCI-H226 = system: NCI-H226
OVCAR-3 = system: OVCAR-3
OVCAR-5 = system: OVCAR-5
RXF 393 = system: RXF 393
SF-295 = system: SF-295
SF-539 = system: SF-539
SK-MEL-28 = system: SK-MEL-28
SK-MEL-2 = system: SK-MEL-2
SK-OV-3 = system: SK-OV-3
SNB-75 = system: SNB-75
U-251 = system: U-251
ACHN = system: ACHN
M14 = system: M14

SMILES | GI50 (CCRF-CEM) | GI50 (EKVX) | GI50 (HCC 2998) | GI50 (HCT-116) | GI50 (HCT-15) [µM] | GI50 (K562) | GI50 (LOX IMVI) | GI50 (NCI-H226) | GI50 (OVCAR-3) | GI50 (OVCAR-5) | GI50 (RXF 393) | GI50 (SF-295) | GI50 (SF-539) | GI50 (SK-MEL-28) | GI50 (SK-MEL-2) | GI50 (SK-OV-3) | GI50 (SNB-75) | GI50 (U-251) | GI50 (ACHN) | GI50 (M14)
CCNC(=O)C(C)C1CCC2(C)C=CC(=O)C(C)=C2C1O (stereo not drawn) | > 100 µM (inactive) | > 100 µM (inactive) | > 100 µM (inactive) | > 100 µM (inactive) | > 100 | > 100 µM (inactive) | > 91 µM (inactive) | > 100 µM (inactive) | > 100 µM (inactive) | > 100 µM (inactive) | > 100 µM (inactive) | > 93.5 µM (inactive) | > 100 µM (inactive) | > 100 µM (inactive) | > 100 µM (inactive) | > 100 µM (inactive) | > 100 µM (inactive) | > 76.4 µM (inactive) | – | –
Cc1ccc(C=C(C(=O)O)C(=O)O)o1 | > 100 µM (inactive) | > 100 µM (inactive) | > 100 µM (inactive) | > 100 µM (inactive) | > 100 | > 100 µM (inactive) | > 100 µM (inactive) | > 100 µM (inactive) | > 100 µM (inactive) | > 100 µM (inactive) | > 100 µM (inactive) | > 100 µM (inactive) | > 100 µM (inactive) | > 100 µM (inactive) | > 100 µM (inactive) | > 100 µM (inactive) | > 100 µM (inactive) | > 100 µM (inactive) | > 100 µM (inactive) | > 100 µM (inactive)
Cc1ccc([N+](=O)[O-])cc1S(=O)(=O)Nc1ccc(C2=NN(C(=O)c3ccccc3)C(c3ccccc3)C2)cc1 (stereo not drawn) | 24.9 µM (inactive) | 16.3 µM (inactive) | – | 18.1 µM (inactive) | 19.5 | 18 µM (inactive) | 30.5 µM (inactive) | 15.5 µM (inactive) | 11.9 µM (inactive) | 41.3 µM (inactive) | 12.1 µM (inactive) | 16.9 µM (inactive) | 16.6 µM (inactive) | 41.6 µM (inactive) | 14.4 µM (inactive) | 16 µM (inactive) | 16.9 µM (inactive) | 16.6 µM (inactive) | 19 µM (inactive) | 24.4 µM (inactive)
CCOC(=O)CN1CCS/C1=N/C#N | > 100 µM (inactive) | > 100 µM (inactive) | > 100 µM (inactive) | > 100 µM (inactive) | > 100 | > 100 µM (inactive) | – | > 100 µM (inactive) | > 100 µM (inactive) | 4.22 µM (inactive) | > 100 µM (inactive) | – | > 100 µM (inactive) | > 100 µM (inactive) | > 100 µM (inactive) | > 100 µM (inactive) | > 100 µM (inactive) | > 100 µM (inactive) | – | –
CC1=CC(O)C(O)C2(C)C1CC1OC(=O)C(O)C3C(C)C(O)C4(O)OCC13C42 (stereo not drawn) | 7.05 µM (inactive) | 30.9 µM (inactive) | 16.8 µM (inactive) | 99.5 µM (inactive) | 335 | 37.2 µM (inactive) | 37.8 µM (inactive) | 41.3 µM (inactive) | 10.2 µM (inactive) | 161 µM (inactive) | 8.81 µM (inactive) | 28.8 µM (inactive) | 39.2 µM (inactive) | 118 µM (inactive) | 59.2 µM (inactive) | 49.9 µM (inactive) | 6.18 µM (inactive) | 62.8 µM (inactive) | – | –
COc1cc(C=O)cc(O)c1O | 38.9 µM (inactive) | > 100 µM (inactive) | > 100 µM (inactive) | > 100 µM (inactive) | > 100 | > 100 µM (inactive) | > 100 µM (inactive) | > 100 µM (inactive) | > 100 µM (inactive) | – | > 10 µM (inactive) | > 100 µM (inactive) | > 100 µM (inactive) | > 100 µM (inactive) | – | > 100 µM (inactive) | > 100 µM (inactive) | > 100 µM (inactive) | > 100 µM (inactive) | > 100 µM (inactive)
CSC1=C(SC)C(=O)c2cn(C)c(=O)cc2C1=O | 0.245 µM (active) | 18.3 µM (inactive) | 17.1 µM (inactive) | 1.81 µM (inactive) | 2.14 | 0.399 µM (active) | 1.78 µM (inactive) | 19.9 µM (inactive) | 1.91 µM (inactive) | 20.2 µM (inactive) | 1.89 µM (inactive) | 13 µM (inactive) | 9.82 µM (inactive) | 2.82 µM (inactive) | 5.06 µM (inactive) | 17.5 µM (inactive) | 8.67 µM (inactive) | 10.2 µM (inactive) | 1.81 µM (inactive) | 1.73 µM (inactive)
CC(C)[C@](O)(C(=O)OCC1CC[N+]2([O-])CC[C@@H](O)C12)[C@H](C)O (stereo partly drawn) | > 375 µM (inactive) | > 375 µM (inactive) | > 277 µM (inactive) | > 255 µM (inactive) | > 375 | > 375 µM (inactive) | > 142 µM (inactive) | > 375 µM (inactive) | > 375 µM (inactive) | > 375 µM (inactive) | > 375 µM (inactive) | > 375 µM (inactive) | > 375 µM (inactive) | > 375 µM (inactive) | 62.2 µM (inactive) | > 375 µM (inactive) | 126 µM (inactive) | > 375 µM (inactive) | – | –
O=C1OC2CC=CC1C2 (stereo not drawn) | > 100 µM (inactive) | > 100 µM (inactive) | > 100 µM (inactive) | > 100 µM (inactive) | > 100 | > 100 µM (inactive) | > 100 µM (inactive) | > 100 µM (inactive) | > 100 µM (inactive) | > 100 µM (inactive) | > 100 µM (inactive) | > 100 µM (inactive) | > 100 µM (inactive) | > 100 µM (inactive) | > 100 µM (inactive) | > 100 µM (inactive) | > 100 µM (inactive) | > 100 µM (inactive) | – | –
COc1ccc(NC(=S)NNC(=O)c2nsc3ccccc23)cc1 | – | 28.3 µM (inactive) | 68.2 µM (inactive) | 28.4 µM (inactive) | 21.8 | 30.9 µM (inactive) | 34.4 µM (inactive) | – | 22.2 µM (inactive) | > 100 µM (inactive) | 22 µM (inactive) | – | 28.3 µM (inactive) | 34.3 µM (inactive) | 25.1 µM (inactive) | – | 24.9 µM (inactive) | 40.8 µM (inactive) | 43.9 µM (inactive) | 17.8 µM (inactive)
CSCCC(NOC(=O)Cc1ccccc1)P(=O)(O)c1ccccc1 (stereo not drawn) | > 100 µM (inactive) | – | > 100 µM (inactive) | > 100 µM (inactive) | > 100 | > 100 µM (inactive) | > 100 µM (inactive) | > 100 µM (inactive) | > 100 µM (inactive) | > 100 µM (inactive) | – | > 100 µM (inactive) | – | > 100 µM (inactive) | > 100 µM (inactive) | > 100 µM (inactive) | > 100 µM (inactive) | > 100 µM (inactive) | > 100 µM (inactive) | > 100 µM (inactive)
Nc1nc(=O)[nH]cc1F [FLUCYTOSINE] | – | > 100 µM (inactive) | > 100 µM (inactive) | > 100 µM (inactive) | > 100 | > 100 µM (inactive) | > 100 µM (inactive) | > 100 µM (inactive) | > 100 µM (inactive) | > 100 µM (inactive) | > 100 µM (inactive) | > 100 µM (inactive) | > 100 µM (inactive) | > 100 µM (inactive) | > 100 µM (inactive) | > 100 µM (inactive) | – | 32.7 µM (inactive) | > 100 µM (inactive) | > 100 µM (inactive)
COc1ccc2c(c1)c1c(n2CCN2CCCCC2)-c2cccc(OC)c2CC1 | 4.27 µM (inactive) | 19.6 µM (inactive) | 15.5 µM (inactive) | 24.7 µM (inactive) | 8.99 | 9.04 µM (inactive) | 16.1 µM (inactive) | 10 µM (inactive) | 17.2 µM (inactive) | 16.1 µM (inactive) | – | 30.5 µM (inactive) | – | 15.4 µM (inactive) | 17.4 µM (inactive) | 33.4 µM (inactive) | 18.5 µM (inactive) | 13.1 µM (inactive) | 17.5 µM (inactive) | 12 µM (inactive)
Oc1nc2c(c(-c3ccccc3Cl)n1)COC/C2=C\c1ccccc1Cl | 49.3 µM (inactive) | 25.6 µM (inactive) | > 100 µM (inactive) | > 100 µM (inactive) | > 100 | – | > 100 µM (inactive) | > 100 µM (inactive) | > 100 µM (inactive) | > 100 µM (inactive) | > 100 µM (inactive) | 94.8 µM (inactive) | > 100 µM (inactive) | > 100 µM (inactive) | > 100 µM (inactive) | > 100 µM (inactive) | 38.9 µM (inactive) | > 100 µM (inactive) | > 100 µM (inactive) | > 100 µM (inactive)
Clc1ccc(C2SCc3nc4ccccc4n32)cc1 (stereo not drawn) | 23.2 µM (inactive) | 34.5 µM (inactive) | – | – | 27.4 | 15.2 µM (inactive) | 14.9 µM (inactive) | 19.4 µM (inactive) | 24.8 µM (inactive) | – | – | 26.2 µM (inactive) | 22.6 µM (inactive) | 21.2 µM (inactive) | 16 µM (inactive) | 25.4 µM (inactive) | 4.88 µM (inactive) | 24 µM (inactive) | 30.1 µM (inactive) | 18.5 µM (inactive)
C=C1C(=O)O[C@@H]2/C=C(\C)CC/C=C(\C)CC[C@@]12O | 0.149 µM (active) | 4.13 µM (inactive) | 5.31 µM (inactive) | 2.42 µM (inactive) | 2.82 | 2.42 µM (inactive) | 1.9 µM (inactive) | 13.8 µM (inactive) | 2.4 µM (inactive) | 11.4 µM (inactive) | 0.185 µM (active) | 10.9 µM (inactive) | 1.2 µM (inactive) | 3.99 µM (inactive) | 9.38 µM (inactive) | 15.6 µM (inactive) | – | 7.36 µM (inactive) | 1.59 µM (inactive) | 3.7 µM (inactive)

Reference: ChEMBL document CHEMBL1201862, “PubChem BioAssay data set” (2004)
